Measured values taken from ChEMBL document CHEMBL1134019, “Structure determination and comparison of BM567, a sulfonylurea, with terbogrel, two compounds with dual action, thromboxane receptor antagonism and thromboxane synthase inhibition” (Bioorg Med Chem Lett, 2001).

Assays:
Thromboxane A2 receptor = molecular target: T1, Thromboxane A2 receptor (Homo sapiens, UniProt P21731); assay: In vitro inhibitory concentration of compound against thromboxane A2 receptor
T1 sequence (P21731 whole entry): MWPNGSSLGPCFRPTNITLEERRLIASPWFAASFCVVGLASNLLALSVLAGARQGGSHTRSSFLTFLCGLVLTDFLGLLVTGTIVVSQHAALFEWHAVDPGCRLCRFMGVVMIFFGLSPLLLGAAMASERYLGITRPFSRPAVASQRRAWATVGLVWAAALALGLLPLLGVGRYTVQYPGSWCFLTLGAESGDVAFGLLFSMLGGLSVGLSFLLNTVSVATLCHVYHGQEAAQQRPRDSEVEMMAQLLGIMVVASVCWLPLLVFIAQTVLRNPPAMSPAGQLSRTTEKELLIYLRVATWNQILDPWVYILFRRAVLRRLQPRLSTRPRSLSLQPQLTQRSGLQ

[1] = molecular target: T2, Thromboxane-A synthase (Homo sapiens) (UniProt P24557); assay: Percent inhibition against thromboxane A2 synthase by the compound at a concentration of 10e-6 M
T2 sequence (whole entry): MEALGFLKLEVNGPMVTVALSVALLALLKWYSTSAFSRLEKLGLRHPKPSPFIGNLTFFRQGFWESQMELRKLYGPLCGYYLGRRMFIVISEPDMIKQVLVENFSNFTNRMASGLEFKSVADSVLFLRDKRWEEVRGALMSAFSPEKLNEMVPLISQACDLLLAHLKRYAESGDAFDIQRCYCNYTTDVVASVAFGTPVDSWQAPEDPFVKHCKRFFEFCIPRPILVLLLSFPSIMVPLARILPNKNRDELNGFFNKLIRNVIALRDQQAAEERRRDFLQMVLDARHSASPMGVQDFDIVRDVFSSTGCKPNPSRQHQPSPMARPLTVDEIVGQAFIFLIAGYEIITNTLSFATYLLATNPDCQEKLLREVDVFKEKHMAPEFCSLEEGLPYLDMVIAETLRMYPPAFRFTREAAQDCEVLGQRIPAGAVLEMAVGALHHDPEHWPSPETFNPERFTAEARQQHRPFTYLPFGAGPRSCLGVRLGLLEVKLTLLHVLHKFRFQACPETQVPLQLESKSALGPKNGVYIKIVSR

IC50 (Thromboxane A2 receptor) | inhibition [1] | SMILES
11 nM |  | CC(C)(C)/N=C(\NC#N)Nc1cccc(/C(=C/CCCC(=O)O)c2cccnc2)c1
 | 97.4% | CCCCCNC(=O)NS(=O)(=O)c1cc([N+](=O)[O-])ccc1NC1CCCCC1
